{
  "source": "patent US20090285836A1",
  "about": "(NEREUS PHARMACEUTICALS, INC., priority 2008, published 2009)",
  "key": {"DU-145 cells [1]": {"tested_on": "DU-145 cells", "assay": "in vitro cell migration assay", "format": "cell-based, human", "details": "DU-145, 100 ng/ml TNF-α", "procedure": "(§1) The functional significance of the NPI-0052-induced changes in the expression profiles of the above metastasis-related gene products was expected to be reflected in the migratory and invasive cell properties.\n(§2) In vitro cell invasion and migration assays were performed using the 24/well BD Biocoat 3 micron migration chambers or 8 micron Matrigel invasion chambers (Becton Dickinson Labware, Bedford, Mass.), respectively, according to manufacturer's instructions. For both assays, cells were starved for 4-5 h prior to setting up the assay by adding basal medium supplemented with 0.1% BSA. RPMI 1640 medium containing 10% serum was used as chemoatractant. […] Data were expressed as the fold cell migration derived from the mean RFU of cell migration through the membrane towards FBS divided by the mean RFU of cell migration in the absence of FBS. […] Invaded cells through Matrigel were counted under the microscope at 40× magnification. Data were expressed as the percent invasion through the Matrigel Matrix and membrane relative to the migration through the control insert membrane.\n(§3) For migratory assays, 10^5 cells were seeded in the upper chamber, while in the lower chamber RPMI 1640 containing 10% FBS was added. […] Only labeled cells that had migrated through the pores of the membrane were detected. […]"}, "DU-145 cells [2]": {"tested_on": "DU-145 cells", "assay": "in vitro Matrigel cell invasion assay", "format": "cell-based, human", "details": "DU-145, 100 ng/ml TNF-α", "procedure": "as §1, §2, §3"}, "DU-145 cells [3]": {"tested_on": "DU-145 cells", "assay": "drug titration, trypan blue exclusion assay", "format": "cell-based, human"}, "[4]": {"tested_on": "HCT-116 human colon carcinoma", "details": "cited from earlier work"}, "[5]": {"tested_on": "National Cancer Institute's 60-cell-line panel", "details": "cited from earlier work"}, "SF-539 CNS cancer": {"tested_on": "SF-539 CNS cancer", "details": "read-out: LC50; cited from earlier work"}, "SK-MEL-28 melanoma": {"tested_on": "SK-MEL-28 melanoma", "details": "read-out: LC50; cited from earlier work"}, "MDA-MB-435 breast cancer": {"tested_on": "MDA-MB-435 breast cancer", "details": "read-out: LC50; cited from earlier work"}, "[6]": {"details": "single agent, mice models; cited from earlier work"}, "[7]": {"tested_on": "human colony-forming assays", "details": "single agent; cited from earlier work"}, "YY1": {"tested_on": "YY1", "assay": "YY1 promoter luciferase reporter and YY1 expression", "format": "cell-based", "details": "pYY1-luciferase reporter (FIG. 11A)", "excerpt": "TRAIL is produced by immune cells, and is a ligand for death receptors DR4, DR5, DcR1, and DcR2. […] Controls included untransfected (UNT) and DMSO. […] RKIP may have a direct role in the NPI-0052-induced sensitization to TRAIL. […] RKIP overexpression results in DR5 upregulation and cell sensitization to TRAIL-mediated apoptosis. YY1 acts as a suppressor of DR5 transcription and is positively regulated by NF-κB. […] Transfection controls include medium only and siRNA negative control. YY1 has a direct role in tumor sensitization to TRAIL apoptosis. […] Controls include transfected with the YY1-lucificerase reporter construct only, and cells treated with 10 μg/ml DHMEQ only. […] CMV-RKIP inhibited both mRNA transcription and protein expression of YY1. YY1 is inhibited by RKIP overexpression via NF-κB down-regulation."}, "RKIP": {"tested_on": "RKIP", "assay": "RKIP expression (RT-PCR, Western blot)", "details": "DU-145, 5 or 10 μg/ml DHMEQ, 24 h, Western blot (FIG. 21D)", "quoted_text": "RKIP transcript levels were determined by RT-PCR for each time point tested (0-12 h). Normalized mRNA values were derived by dividing the mRNA value of each target gene with the corresponding quantity of GAPDH mRNA. Statistical analysis was performed using the Mann-Whitney U test. P values: treated vs untreated cells. The data represent the mean values±SEM from three independent experiments. […] Protein levels were also determined. Protein lysates were harvested at various time points and subjected to Western Blot analysis for RKIP protein. Actin was used as an internal control for loading. Blots are representative of three independent and reproducible experiments.\n(§4) DU-145 cells were treated with 5 or 10 μg/ml DHMEQ and protein lysates were harvested 24 h after treatment for RKIP and Snail protein determination by Western blot."}, "Snail": {"tested_on": "Snail", "assay": "Snail expression (RT-PCR, Western blot)", "details": "DU-145, 5 or 10 μg/ml DHMEQ, 24 h, Western blot (FIG. 21D)", "quoted_text": "as §4"}},
  "data": [
    {"compound": "TNF-α", "values": [
      {"measurement": "augmentation of migration compared to untreated cells", "setting": "DU-145 cells [1]", "value": "~10", "unit": "fold"},
      {"measurement": "augmentation of invasion compared to untreated cells", "setting": "DU-145 cells [2]", "value": "~10", "unit": "fold"}
    ]},
    {"compound": "C[C@@]12OC(=O)[C@]1([C@@H](O)[C@@H]1C=CCCC1)NC(=O)[C@@H]2CCCl", "note": "[NPI-0052, Salinosporamide A]", "values": [
      {"measurement": "ID20 drug concentration (subtoxic concentration)", "setting": "DU-145 cells [3]", "value": 50, "unit": "nM"},
      {"measurement": "IC50, in vitro cytotoxicity", "setting": "[4]", "value": 0.011, "unit": "µg/mL"},
      {"measurement": "LC50 differential between resistant and susceptible cell lines", "setting": "[5]", "value": "greater than 4 log"},
      {"measurement": "CC50", "setting": "SF-539 CNS cancer", "value": "< 10", "unit": "nM"},
      {"measurement": "CC50", "setting": "SK-MEL-28 melanoma", "value": "< 10", "unit": "nM"},
      {"measurement": "CC50", "setting": "MDA-MB-435 breast cancer", "value": "< 10", "unit": "nM"},
      {"measurement": "tolerance in vivo", "setting": "[6]", "value": "good tolerance"},
      {"measurement": "toxicity in human colony-forming assays", "setting": "[7]", "value": "limited toxicity"}
    ]},
    {"compound": "O=C(NC1=CC(=O)[C@H]2O[C@H]2[C@H]1O)c1ccccc1O", "note": "[DHMEQ]", "values": [
      {"measurement": "YY1 promoter luciferase activity", "setting": "YY1", "value": "inhibited YY1 luciferase activity"},
      {"measurement": "RKIP protein", "setting": "RKIP", "value": "RKIP induction"},
      {"measurement": "Snail protein", "setting": "Snail", "value": "Snail suppression"}
    ]}
  ]
}
